In patent US20060019270A1, “Global DNA methylation assessment using bisulfite PCR” (Board of Regents The University of Texas System, priority 2004, published 2006):

Legend:
[1] = system: LINE-1 methylation in RKO cells; test: COBRA (HinfI) of LINE-1 PCR, RKO cells treated with DAC; assay type: cell-based, human; conditions: 5 μM DAC for three days, decrease from 67%
Procedure: Hct116, RKO and SW48, colon cancer cell lines (American Type Culture Collection, Manassas, Va.), were cultured using standard methods. Cells were treated with 5 μM 5-aza-2′deoxycytidine (DAC) for three days prior to being harvested. DNA from cell lines and peripheral blood leukocytes was extracted using phenol-chloroform extraction methods well known to one with skill on the art.
Bisulfite modification of genomic DNA is known in the art (see Clark et. al, 1994). In brief, 1.5 μg prepared 10 mM hydroquinone (Sigma) and 520 μl of 3M Sodium Bisulfite (Sigma) at pH=5.0 were added and mixed. The samples were overlayed with mineral oil to prevent evaporation and incubated at 50° C. for 16 hours. The bisulfite treated DNA was isolated using Wizard DNA Clean-Up System (Promega). The DNA was eluted by 50 μl of warm water and 5.5 μl of 3M NaOH were added for 5 minutes. The DNA was ethanol precipitated with glycogen as a carrier and resuspended in 20 μl water. Bisulfite treated DNA was stored at −20° C. until ready for use. […]
In order to test whether Alu element […] LINE-1 methylation could approximate global methylation, COBRA, restriction digestion of the repetitive element PCR product, was used to quantitate DNA methylation in cell lines treated with 5-aza-2′deoxycytidine (DAC) (FIG. 3). […] Thus both assays reliably detected inhibition of methylation induced by DAC. […]

Alu element methylation = test: Alu element assay (COBRA) on peripheral blood of leukemia patients treated with decitabine; assay type: in vivo, human
Procedure: FIG. 6 illustrates treatment schema of patient samples. Patients were treated as part of a Phase II study of Decitabine which was given initially a dose of 90 mg/m2 twice daily for 5 consecutive days. This dose was later decreased to 50 mg/m2 twice daily due to toxicity. In this “High” Dose Study a total dose of 500-900 mg/m2 of decitabine was given over a 5 day period. Peripheral blood specimens were collected on day 0 or 1 prior to treatment, days 2-4 during treatment, and on days 5 or 6 after the completion of treatment. In the second study, a Phase I strategy of “Low” Dose Decitabine was used. This study was designed to take advantage of Decitabine's demethylating properties. Escalating doses of Decitabine of 5, 10, 15 and 20 mg/m2 were given as ten daily doses over a two week period. The total dose delivered was only 50 to 200 mg/m2 over a 14 day period. Peripheral blood specimens were collected on day 0 or 1 prior to treatment, and during days 2-14 of treatment;
Normal colon mucosa and colon cancers were collected from consenting patients. Thirty-one matched pairs of normal colon mucosa and colon tumors were used in this study. An additional 9 normal colon samples were collected from patients undergoing colectomy for non-neoplastic reasons. DNA was isolated using standard phenol-chloroform extraction methods. DNA was bisulfite treated as described above. A previously described COBRA assay that examined Alu repetitive elements was developed as a global genome methylation assessment assay (Xiong and Laird, 1997). In brief, a 25 ul PCR reaction was carried out in 60 mM Tris-HCl pH 9.5, 15 mM Ammonium Sulfate, 5.5 mM MgCl2, 10% DMSO, 1 mM dNTP mix, 1 unit of Taq polymerase, 50 pmol of the forward primer (5′-[…]-3′) (SEQ ID NO: 1), 50 pmol of the reverse primer (5′-[…]-3′) (SEQ ID NO:2), and approximately 50 ng of bisulfite treated genomic DNA. PCR cycling conditions were 96° C. for 90 seconds, 43° C. for 60 seconds, and 72° C. for 120 seconds for 27 cycles. After the PCR reaction was complete 15 μl of MboI buffer (New England Biolabs Buffer #3) were added along with 5 units of MboI Restriction Enzyme and water to a final volume of 150 ul. The restriction digestion was incubated at 37° C. overnight to assure complete digestion. The digested PCR product was then precipitated by adding 1 μl glycogen and 2 volumes of ethanol and kept at −20° C. for at least 4 hours. Samples were then centrifuged for 30 minutes, the ethanol was poured off and the pellet was air dried prior to resuspending in a small volume (5-10 μl) of water. The digested PCR products were then run on an Agilent Biosystems DNA analyzer to quantitate the cut ([…]) and uncut ([…]) DNA. Each sample was run at least twice and the data reported is an average of all runs.
The methylation sites in Alu elements are frequently mutated from C to T by spontaneous deamination, which results in a gross underestimating of the amount of 5-methylcytosine. Therefore, control genomic DNA was double treated with SssI methylase and bisulfite treated to act as a 100% methylated control. Alu methylation is reported as a percentage of this fully methylated control standard.
Patient samples were collected from patients treated as part of two clinical studies using 5-aza-2′deoxycytidine (decitabine) as a single agent. The first study treated patients with 50-90 mg/m2 of decitabine twice daily for 5 consecutive days (See FIG. 8). The second study was a phase I study which attempted to capitalize on the demethylating properties of decitabine by using a lower dose of decitabine, 5-20 mg/m^2 once daily, for a longer period of time, 10 days over a two week period (See FIG. 8). Peripheral blood samples were collected prior to, during and after treatment. Donation of blood samples for laboratory studies was voluntary and 143 samples were collected from 41 patients participating in both studies (See Table 4). […]

Nc1ncn([C@H]2C[C@H](O)[C@@H](CO)O2)c(=O)n1 [decitabine, 5-aza-2′-deoxycytidine]
LINE-1 methylation after treatment with DAC [1]: 29%
average Alu demethylation (Alu element methylation; 41 patients with leukemia, different doses, 4 to 7 days after treatment): 7.7%
maximum decrease in Alu methylation seen in a single patient (Alu element methylation; 41 patients with leukemia, 4 to 7 days after treatment): 31.5%
optimal demethylating dose (Alu element methylation; DNA methylation at days 5 to 6, both studies (FIG. 9B)): 15 to 20 mg/m2/day
correlation of Alu demethylation with clinical response (Alu element methylation; High Dose Study (p=0.23)): demethylation did not correlate to response
mean decrease of Alu element methylation (Alu element methylation; High Dose study, day 5 to 8): 10%
correlation of Alu demethylation with clinical response (Alu element methylation; Low Dose Study (p=0.04 days 5-8, p=0.02 days 9-14)): demethylation did correlate to response
decrease in Alu element methylation (Alu element methylation; Low dose study, day 5 to 8): 5%
patients showing a paradoxical increase in DNA methylation with decitabine treatment (Alu element methylation; both studies): 12%
mean decrease in Alu methylation (Alu element methylation; both studies, overall): 7.7%
range of decrease in Alu methylation (Alu element methylation; both studies, overall): −10.3 to 31.5%
patients showing a decrease in Alu methylation with decitabine treatment (Alu element methylation; both studies, 90.5% methylated prior to treatment): 88%
earliest day demethylation could be detected (Alu element methylation; either dosing regimen): 2 days
time at which demethylation plateaus (Alu element methylation; low dose decitabine): 5 to 8 days
time for methylation to return to baseline after finishing treatment (in as little as) (Alu element methylation; patients with leukemia): 15 days
dose dependence of demethylation at higher doses (Alu element methylation; six dose levels 5-180 mg/m2/day, day 5-6): there did not appear to be a significant increase in demethylation beyond 20 mg/m2/day
